# Laboratory results: patent US8431530B2, “Compositions and methods for treating aids or cancer by inhibiting the secretion of microparticles” (priority 2009, dated 2013)
# How the values were obtained:
# [1] = system: NefGFP release from HEK293 cells; experiment: Nef-GFP co-transfection secretion assay, GFP fluorescence of supernatant; assay type: cell-based; details: HEK293, 0.5 μg Nef-GFP + 0.5 μg peptide, Chariot, 48 h; relative to NefGFP+sM1 (100%)
# Experimental: Therefore, a set of co-transfection experiments were performed. HEK293 cells were co-transfected with 0.5 μg of pQBI-HIV Nef-GFP (expresses wild type Nef protein) and either 0.5 μg of HIV-1 Nef SMRwt or SMRmut peptide or sM1 peptide (a totally random control peptide, ALAETCQNAWA (SEQ ID NO: 7)) with Chariot. Briefly, the wild-type Nef-GFP clone and the SMR peptides were complexed with Chariot reagent for 30 minutes at RT. The DNA/peptide/Chariot complex was added to HEK293 cells in serum-free media, and the cells were plated. Following incubation for 2 hours at 37° C., media with serum was added to the dish, and the cells were incubated at 37° C. for 48 h. The media was then collected and assayed for secretion using a spectrofluorimeter. The conditioned supernatants from these cultures were assayed for GFP fluorescence by plate reader.
# [2] = system: R7 in Jurkat cells, HEK293 cells, THP-1 monocytes, U937 monocytes; experiment: Western blot of Nef and p24 in supernatant pellets; assay type: cell-based, HIV; details: R7 co-transfection, HEK293, THP-1, U937, 400,000×g supernatant pellets
# Experimental: At 2 hours, 3 days, 6 days, 9 days, 13 days, 15 days, 17 days, 20 days, 23 days, 27 days and 36 days post-transfection, 0.5 ml supernatant were collected from each plate, mixed with 0.5 ml fresh media and analyzed by p24 ELISA assay. 1.5 ml of supernatant were collected from each plate and spun in a TLA100 rotor at 400,000×g for 1 hour to create the pellets. The pellets were used for Western blot analysis with p24 mAb and Nef mAb.
# No effect is observed for the negative control peptide (NefSMRmut). […] This is possibly due to antagonism of trafficking of viral component(s) to the cytoplasmic membrane. Ultimately this would (i) shutdown the HIV infection and (ii) block progression to AIDS.
# [3] = system: HIV-1 Gag-GFP secretion, HEK293; experiment: HIV-1 Gag-GFP induced secretion, fluorescent plate reader assay; assay type: cell-based; details: for SMRmt/SMRwt ratio of secretion: HEK293, HIV-1 Gag-GFP; for Increase in Secretion (relative to untransfected cells), exp condition/UT: HEK293, HIV-1 Gag-GFP (sM1 column head prints GFP/sM1), 0.5 μg peptide, 48 hours
# Experimental: (§1) Cells were co-transfected with 0.5 μg of pQBI-HIV Gag-GFP (expresses wild type Gag protein) and either 0.5 μg of HIV-1 Nef SMRwt, SMRmut peptide, sM1 peptide or untransfected controls with Chariot for 48 hours. The conditioned supernatants from these cultures were assayed for GFP fluorescence by plate reader.
# [4] = system: HIV-1 Gag-GFP secretion, Jurkat; experiment: as above; assay type: cell-based; details: for SMRmt/SMRwt ratio of secretion: HIV-1 Gag-GFP; for Increase in Secretion (relative to untransfected cells), exp condition/UT: HIV-1 Gag-GFP (sM1 column head prints GFP/sM1), 0.5 μg peptide, 48 hours
# Experimental: as §1
# [5] = system: HIV-1 Gag-GFP secretion, THP-1; experiment: as above; assay type: cell-based; details: for SMRmt/SMRwt ratio of secretion: THP-1, HIV-1 Gag-GFP; for Increase in Secretion (relative to untransfected cells), exp condition/UT: THP-1, HIV-1 Gag-GFP (sM1 column head prints GFP/sM1), 0.5 μg peptide, 48 hours
# Experimental: as §1
# [6] = system: HIV-1 Gag-GFP secretion, U937; experiment: as above; assay type: cell-based; details: for SMRmt/SMRwt ratio of secretion: U937, HIV-1 Gag-GFP; for Increase in Secretion (relative to untransfected cells), exp condition/UT: U937, HIV-1 Gag-GFP (sM1 column head prints GFP/sM1), 0.5 μg peptide, 48 hours
# Experimental: as §1
# [7] = system: HIV-1 Nef-GFP secretion, cell line H; experiment: HIV-1 Nef-GFP induced secretion, fluorescent plate reader assay; assay type: cell-based; details: for SMRmt/SMRwt ratio of secretion: HIV-1 Nef-GFP; for Increase in Secretion (relative to untransfected cells), exp condition/UT: HIV-1 Nef-GFP (sM1 column head prints GFP/sM1)
Substance,release of NefGFP into the extracellular supernatant (GFP fluorescence) [1],amount of virus production (Western blot of p24 and Nef) [2],SMRmt/SMRwt ratio of secretion [3] [y],"Increase in Secretion (relative to untransfected cells), exp condition/UT [3] [x]","Gag virus-like particle release (in words, Table II) ([4]; Gag-GFP alone, HEK293, THP-1, U937)",SMRmt/SMRwt ratio of secretion [4] [y],"Increase in Secretion (relative to untransfected cells), exp condition/UT [4] [x]",SMRmt/SMRwt ratio of secretion [5] [y],"Increase in Secretion (relative to untransfected cells), exp condition/UT [5] [x]",SMRmt/SMRwt ratio of secretion [6] [y],"Increase in Secretion (relative to untransfected cells), exp condition/UT [6] [x]",SMRmt/SMRwt ratio of secretion [7] [y],"Increase in Secretion (relative to untransfected cells), exp condition/UT [7] [x]"
H-VGFPVAAVGFPVDYKDDDDK-OH [SMRwt],antagonizes the release of NefGFP into the extracellular supernatant,drastically reduced to zero or close to zero,1,24.22,no effect on Gag virus-like particle release,1,47.46,1,41.3,1,43.95,1.0,2.3
H2N-AGFPVAAAGFPVDYKDDDDK-OH (H-AGFPVAAAGFPVDYKDDDDK-OH) [SMRmt],no effect,No effect,1.08,25.96,,1.22,58.22,1.08,45.06,1,43.82,24.8,57.04
